Measurements published in US9149618B2, “Built-in non-verbal instructional device integratable to applicators” (NANOMED SKINCARE, INC., priority 2010, dated 2015).
Like-named read-outs stand apart in the source and are kept apart here.

Legend:
[1] = In vitro permeation study, Franz-type diffusion cells, human cadaver skin; type: in vitro ADME
Experimental: Samples of full-thickness dermatomed human cadaver skins (≈800 μm) were obtained from the Burns Institute, 304th Clinical Department, The General Hospital of PLA, Trauma Center of Postgraduate Medical College and were free from overt pathology. The skin samples were kept frozen in liquid nitrogen and used within 3 months.
(§1) The method of the percutaneous absorption study adheres to the Test Guideline 428 of Organization for Economic Cooperation and Development (2004). The experiment was performed with a system employing Franz-type glass diffusion cells. The temperature in the receptor chamber was maintained at physiological temperature of 37.0±0.1° C. with an external, constant temperature circulating water bath.
Skin samples were treated using FMA delivery system. The insertion force was provided by the applicator. The skins without FMA treatment were used as control. The skin was mounted on a receptor chamber (2.5 ml) with the stratum corneum side facing upward into the donor chamber with effective permeation area of 0.66 cm^2. The receptor and donor chambers were filled with PBS solution, and the receptor fluid was continuously stirred with a magnetic bar at 280 rpm to maintain homogeneity. After 1 h equilibration, the solution in the receptor chamber was replaced with fresh PBS, and 300 μl of LC solution or 300 mg of LC gel was applied on the skin in the donor chamber, which was then covered with a parafilm to avoid any evaporation process. […] The samples were analyzed by HPLC/UV. The results were expressed as the mean±S.D. (n=3-4 independent samples).
The quantitative determination of LC was performed by HPLC using methanol-190 mM KH2PO4 water (87:13) as mobile phase at a flow rate of 0.6 ml/min, by LC-2010A (Shimadzu, Japan). […] The column eluant was monitored at 225 nm. […]
The cumulative amount of drug permeated per unit area versus time was plotted. The permeation rates of LC were calculated from the slope of linear portion of the plots. […] Statistically significant differences were determined using the analysis of variance (ANOVA) with P<0.05 as a minimal level of significance.

[2] = In vitro permeation study, Franz-type diffusion cells, rat skin; type: in vitro ADME
Source text: Male Sprague-Dawley rats (220-250 g) were provided by Beijing Weitong Lihua Experimental Animals Ltd. Co. (Beijing China). Forty-eight hours before the test, rats were anesthetized by ether, and then the abdominal hair of each rat was shaved with an electric hair clipper. At the beginning of in vitro studies, animals were euthanized using carbon dioxide and full-thickness skins were removed. All research protocols adhered to the Guide for the Care and Use of Laboratory Animals (1996).
as §1
Skin samples were treated using FMA delivery system. The insertion force was provided by the applicator. The skins without FMA treatment were used as control. The skin was mounted on a receptor chamber (2.5 ml) with the stratum corneum side facing upward into the donor chamber with effective permeation area of 0.66 cm^2. The receptor and donor chambers were filled with PBS solution, and the receptor fluid was continuously stirred with a magnetic bar at 280 rpm to maintain homogeneity. After 1 h equilibration, the solution in the receptor chamber was replaced with fresh PBS, and 300 μl of LC solution or 300 mg of LC gel was applied on the skin in the donor chamber, which was then covered with a parafilm to avoid any evaporation process. The samples of receptor cell were withdrawn through at predetermined time intervals and the receptor phase was immediately refreshed by equal volume of PBS buffer to keep a constant volume. The samples were analyzed by HPLC/UV. The results were expressed as the mean±S.D. (n=3-4 independent samples).
The quantitative determination of LC was performed by HPLC using methanol-190 mM KH2PO4 water (87:13) as mobile phase at a flow rate of 0.6 ml/min, by LC-2010A (Shimadzu, Japan). The injection volume was 20 μl. The analysis was performed in a YMC-Pack ODS-A C18 column with dimensions of 250 mm×4.6 mm i.d., 5 μm particle size (YMC Inc., USA). The column eluant was monitored at 225 nm. The detection limit is 20 μg ml^−1. The inter- and intra-day variability was less than 5%.
The cumulative amount of drug permeated per unit area versus time was plotted. The permeation rates of LC were calculated from the slope of linear portion of the plots. Data analysis was carried out with Microsoft Excel, Version 2000. Results were presented as the mean±S.D. (n=3-4 independent samples). Statistically significant differences were determined using the analysis of variance (ANOVA) with P<0.05 as a minimal level of significance.

[3] = Skin penetration of active agent on applicator pre-treated skin
[4] = In vitro permeation study, Franz-type diffusion cells, porcine ear skin; conditions: for Permeation rates of LC / Cumulative amount of LC: porcine ear skin, FMA; for Cumulative amount of LC: 8 h
[5] = In vivo permeation study: pharmacokinetics and absolute bioavailability of LC in rats; conditions: rat; for bioavailability / AUC(0-inf) / Cmax / Tmax: male, Sprague-Dawley, plasma; for AUC(0-inf): AUC0-∞; for Plasma concentration: intravenous 200 mg/rat
Source text: Male Sprague-Dawley rats (250 g±10 g) were equally divided into four groups (3 for each): group A, B, C and D. Before administration, all rats allowed to acclimatize for one week. One day before administration, rats were fasted overnight but allowed access to water. The hair of abdominal skin was carefully shaved by electric clippers for Group A and B. The rats in group A were pretreated by FMA with an area of 2 cm^2, the group B was untreated as a control. Then hydrogel patch containing LC 750 mg was applied to each rat by an adhesive housing for 6 h. Group C and Group D were control groups of oral and intravenous injection administration of 1 ml LC solution (200 mg/ml). A volume of 0.5 ml blood samples were taken before administration and at predetermined time intervals after LC administration. Plasma samples were immediately separated by centrifugation at 4000×g for 7 mins, and stored at −80° C. until assay.
Pretreatment method of samples: 120 μl of plasma was deproteinized with 600 μl of 0.6 M perchloric acid. The mixture was shaken for 30 s and allowed to stand in an ice bath for about 15 mins. After centrifuged at 4000×g for 7 mins, 500 μl of supernatant was transferred to a new tube in which 300 μl of 0.5 M K2CO3 was added, the mixture was shaken for 30 s and incubated in an ice-bath for 15 mins. Precipitate of KClO4 was removed by centrifugation at 4000×g for 7 mins, and 200 μl of the supernatant with free LC was separated for the assay.
Assays: The concentration of free LC in serum was determined by enzymatic assay kit with a limitation detection of 0.8 μg/ml.
Maximum plasma concentration (Cmax) and the time to reach this peak (Tmax) were directly identified from the pharmacokinetic curves (LC plasma concentration versus time). Area under the plasma concentration-time curve (AUC0→∞) was calculated by using the trapezoidal rule. Absolute bioavailability (A.B.) of LC after oral and FMA administration comparing with intravenous administration was calculated using the following equation:

[6] = With FMA, CP980 gel patch 750 mg/rat, 6 h application

What does the source list for `C[N+](C)(C)C[C@H](O)CC(=O)[O-]` [LC, (3R)-3-hydroxy-4-trimethylazaniumylbutanoate]?
ER (enhancement ratio, FMA permeation rates/passive permeation rates) ([1]; human skin): 59; Permeation rates, FMA ([1]; human skin dermatomed ≈800 μm, FMA pretreatment, donor 640 mg/mL): 10.65 ± 2.12 mg/cm^2/h; Permeation rates, Passive Diffusion ([1]; human skin dermatomed ≈800 μm, without FMA, donor 640 mg/mL): 0.18 ± 0.02 mg/cm^2/h; Permeation rate through rat skin relative to human skin ([2]; after FMA-puncture): 3.7 times; Permeation rate through rat skin relative to human skin ([2]; passive diffusion): about 13.8 times; ER (enhancement ratio, FMA permeation rates/passive permeation rates) ([2]; rat skin): 16; Permeation rates, FMA ([2]; rat skin full thickness, FMA pretreatment, donor 640 mg/mL): 40.16 ± 3.97 mg/cm^2/h; Permeation rates, Passive Diffusion ([2]; rat skin full thickness, without FMA, donor 640 mg/mL): 2.49 ± 0.40 mg/cm^2/h; Skin penetration speed on applicator pre-treated skin [3]: 10 times faster; Apparent dose of LC [6]: 200 mg/rat; The residual amount in patch [6]: 550 mg/rat; The residual amount in patch (Without FMA, CP980 gel patch 750 mg/rat, 6 h application): 764 mg/rat; Difference between residual and initial content of patch (rat, in vivo): no significant difference; Permeation rates, FMA ([4]; porcine ear skin dermatomed ≈800 μm, FMA pretreatment, donor 640 mg/mL): 11.08 ± 2.05 mg/cm^2/h; Permeation rates, Passive Diffusion ([4]; porcine ear skin dermatomed ≈800 μm, without FMA, donor 640 mg/mL): 0.37 ± 0.04 mg/cm^2/h; Permeation rates of LC ([4]; donor concentration 650 mg/ml): 11.08±2.05 mg/cm^2/h; Cumulative amount of LC ([4]; donor concentration 650 mg/ml): 93.23±17.76 mg/cm^2; Permeation rates of LC ([4]; donor concentration 800 mg/ml): 11.80±1.50 mg/cm^2/h; Cumulative amount of LC ([4]; donor concentration 800 mg/ml): 97.20±12.60 mg/cm^2; bioavailability ([5]; iv, 200 mg): 100%; AUC(0-inf) ([5]; iv, 200 mg, Intravenous 200 mg/rat): 3680 µg·h/mL; Cmax ([5]; po, 200 mg): 40 ± 11 µg/mL; Tmax ([5]; po, 200 mg): 2 h; bioavailability ([5]; po, 200 mg): 8%; AUC(0-inf) ([5]; po, 200 mg, Oral 200 mg/rat): 309 µg·h/mL; Cmax ([5]; topical or ocular, 750 mg): 530 ± 86 µg/mL; Tmax ([5]; topical or ocular, 750 mg): 4 h; bioavailability ([5]; topical or ocular, 750 mg): 22%; AUC(0-inf) ([5]; topical or ocular, 750 mg, FMA delivery 750 mg/rat): 3020 µg·h/mL; Cmax after FMA delivery relative to oral administration ([5]; FMA 750 mg/rat vs oral 200 mg/rat): about 13 fold; AUC0-∞ ([5]; FMA delivery 750 mg/rat): 3049 µg·h/mL; Plasma concentration ([5]; at 3 min): 3900 ± 420 µg/mL; Plasma concentration ([5]; at 2 h): 270 ± 50 µg/mL
